PubChem BioAssay (NCI)
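Five concentrations, 48 hours, 96-well plates. TGI is the concentration that stops growth completely.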

Assays:
Test in all cases: NCI anticancer screen, dose series, 48 h
SF-539 CNS = system: SF-539 CNS
HOP-62 NSCLC = system: HOP-62 NSCLC
786-0 renal = system: 786-0 renal
NCI/ADR-RES ovarian = system: NCI/ADR-RES ovarian
SW-620 colon = system: SW-620 colon
NCI-H522 lung = system: NCI-H522 lung
SN12C renal = system: SN12C renal
MOLT-4 leukemia = system: MOLT-4 leukemia
ACHN renal = system: ACHN renal
RPMI-8226 leukemia = system: RPMI-8226 leukemia
SK-MEL-2 melanoma = system: SK-MEL-2 melanoma
MALME-3M melanoma = system: MALME-3M melanoma
A498 renal = system: A498 renal
OVCAR-4 ovarian = system: OVCAR-4 ovarian
HT29 colon = system: HT29 colon
SR leukemia = system: SR leukemia
CAKI-1 renal = system: CAKI-1 renal
SNB-75 CNS = system: SNB-75 CNS
HS 578T breast = system: HS 578T breast
OVCAR-3 ovarian = system: OVCAR-3 ovarian
HCC-2998 colon = system: HCC-2998 colon
PC-3 prostate = system: PC-3 prostate
HCT-15 colon = system: HCT-15 colon
T-47D breast = system: T-47D breast
MCF7 breast = system: MCF7 breast
LOX IMVI melanoma = system: LOX IMVI melanoma
MDA-N = system: MDA-N
UACC-62 melanoma = system: UACC-62 melanoma
SK-MEL-5 melanoma = system: SK-MEL-5 melanoma
KM12 colon = system: KM12 colon
HL-60(TB) leukemia = system: HL-60(TB) leukemia
BT-549 breast = system: BT-549 breast
SK-OV-3 ovarian = system: SK-OV-3 ovarian
HCT-116 colon = system: HCT-116 colon
MDA-MB-231 breast = system: MDA-MB-231 breast
IGROV1 ovarian = system: IGROV1 ovarian
SF-268 CNS = system: SF-268 CNS
NCI-H460 lung = system: NCI-H460 lung
HOP-92 NSCLC = system: HOP-92 NSCLC
U251 CNS = system: U251 CNS
NCI-H226 lung = system: NCI-H226 lung
OVCAR-5 ovarian = system: OVCAR-5 ovarian
OVCAR-8 ovarian = system: OVCAR-8 ovarian
M14 melanoma = system: M14 melanoma
MDA-MB-435 = system: MDA-MB-435
K-562 leukemia = system: K-562 leukemia
UO-31 renal = system: UO-31 renal
RXF 393 renal = system: RXF 393 renal
SK-MEL-28 melanoma = system: SK-MEL-28 melanoma
SNB-19 CNS = system: SNB-19 CNS
CCRF-CEM leukemia = system: CCRF-CEM leukemia
UACC-257 melanoma = system: UACC-257 melanoma
DU-145 prostate = system: DU-145 prostate
TK-10 renal = system: TK-10 renal
NCI-H23 lung = system: NCI-H23 lung
A549 NSCLC = system: A549 NSCLC
SF-295 CNS = system: SF-295 CNS
COLO 205 colon = system: COLO 205 colon
EKVX NSCLC = system: EKVX NSCLC

Work on `Clc1ccc(N=C/C=C/Nc2ccc(Cl)cn2)nc1` yielded a TGI (SF-539 CNS) of 31.3 µM, a TGI (HOP-62 NSCLC) of 31 µM and a TGI (786-0 renal) of 18.3 µM. For the same molecule, the TGI (NCI/ADR-RES ovarian) was 32.6 µM, the TGI (SW-620 colon) was 16.9 µM and the TGI (NCI-H522 lung) was 28.4 µM. The TGI (SN12C renal) was 28.6 µM, the TGI (MOLT-4 leukemia) was 19.4 µM and the TGI (ACHN renal) was 25.1 µM. It also gave a TGI (RPMI-8226 leukemia) of 37.1 µM, a TGI (SK-MEL-2 melanoma) of 29.2 µM and a TGI (MALME-3M melanoma) of 31.2 µM. The TGI (A498 renal) was 34.7 µM, the TGI (OVCAR-4 ovarian) was 25.7 µM and the TGI (HT29 colon) was 22.1 µM. The TGI (SR leukemia) was 6.69 µM, the TGI (CAKI-1 renal) was 25.1 µM and the TGI (SNB-75 CNS) was 25.7 µM. The TGI (HS 578T breast) was 23.3 µM, the TGI (OVCAR-3 ovarian) was 26.6 µM and the TGI (HCC-2998 colon) was 0.922 µM. It also gave a TGI (PC-3 prostate) of 27.6 µM, a TGI (HCT-15 colon) of 13 µM and a TGI (T-47D breast) of 40.9 µM. For the same molecule, the TGI (MCF7 breast) was 31.6 µM, the TGI (LOX IMVI melanoma) was 19.8 µM and the TGI (MDA-N) was 28.4 µM. For the same molecule, the TGI (UACC-62 melanoma) was 26.2 µM, the TGI (SK-MEL-5 melanoma) was 27.5 µM and the TGI (KM12 colon) was 21 µM. For the same molecule, the TGI (HL-60(TB) leukemia) was 3.91 µM, the TGI (BT-549 breast) was 31 µM and the TGI (SK-OV-3 ovarian) was 36.6 µM. The TGI (HCT-116 colon) was 25 µM, the TGI (MDA-MB-231 breast) was 16.2 µM and the TGI (IGROV1 ovarian) was 28.9 µM. The TGI (SF-268 CNS) was 30.6 µM, the TGI (NCI-H460 lung) was 32.7 µM and the TGI (HOP-92 NSCLC) was 30.1 µM. For the same molecule, the TGI (U251 CNS) was 20.7 µM, the TGI (NCI-H226 lung) was 31.2 µM and the TGI (OVCAR-5 ovarian) was 30 µM. For the same molecule, the TGI (OVCAR-8 ovarian) was 23.3 µM, the TGI (M14 melanoma) was 30.2 µM and the TGI (MDA-MB-435) was 27.6 µM. For the same molecule, the TGI (K-562 leukemia) was 23.2 µM, the TGI (UO-31 renal) was 29.2 µM and the TGI (RXF 393 renal) was 34.9 µM. For the same molecule, the TGI (SK-MEL-28 melanoma) was 32.9 µM, the TGI (SNB-19 CNS) was 30.1 µM and the TGI (CCRF-CEM leukemia) was 9.41 µM. The TGI (UACC-257 melanoma) was 32.3 µM, the TGI (DU-145 prostate) was 31.6 µM and the TGI (TK-10 renal) was 34.9 µM. It also gave a TGI (NCI-H23 lung) of 32.8 µM, a TGI (A549 NSCLC) of 29.1 µM and a TGI (SF-295 CNS) of 30.6 µM. It also gave a TGI (COLO 205 colon) of 25.3 µM and a TGI (EKVX NSCLC) of 13.9 µM.

`C[Si](C)(C)C#CCO[Si](C)(C)C` was tested, and the TGI (SF-539 CNS) was 52.3 µM, the TGI (HOP-62 NSCLC) was greater than 100 µM and the TGI (786-0 renal) was greater than 78.8 µM. It also gave a TGI (NCI/ADR-RES ovarian) greater than 100 µM, a TGI (SW-620 colon) greater than 100 µM and a TGI (NCI-H522 lung) of 29.9 µM. The TGI (SN12C renal) was greater than 100 µM, the TGI (MOLT-4 leukemia) was 58.4 µM and the TGI (ACHN renal) was greater than 100 µM. For the same molecule, the TGI (RPMI-8226 leukemia) was greater than 79.8 µM, the TGI (SK-MEL-2 melanoma) was greater than 100 µM and the TGI (MALME-3M melanoma) was greater than 100 µM. The TGI (A498 renal) was greater than 100 µM, the TGI (OVCAR-4 ovarian) was greater than 100 µM and the TGI (HT29 colon) was greater than 100 µM. For the same molecule, the TGI (SR leukemia) was greater than 61.5 µM, the TGI (CAKI-1 renal) was greater than 100 µM and the TGI (SNB-75 CNS) was greater than 100 µM. It also gave a TGI (HS 578T breast) greater than 100 µM, a TGI (OVCAR-3 ovarian) greater than 100 µM and a TGI (HCC-2998 colon) greater than 100 µM. The TGI (PC-3 prostate) was greater than 100 µM, the TGI (HCT-15 colon) was greater than 100 µM and the TGI (T-47D breast) was greater than 100 µM. It also gave a TGI (MCF7 breast) greater than 100 µM, a TGI (LOX IMVI melanoma) of 19.9 µM and a TGI (MDA-N) greater than 100 µM. For the same molecule, the TGI (UACC-62 melanoma) was greater than 100 µM, the TGI (SK-MEL-5 melanoma) was greater than 100 µM and the TGI (KM12 colon) was greater than 89.3 µM. For the same molecule, the TGI (HL-60(TB) leukemia) was greater than 61 µM, the TGI (BT-549 breast) was greater than 100 µM and the TGI (SK-OV-3 ovarian) was greater than 100 µM. For the same molecule, the TGI (HCT-116 colon) was greater than 100 µM, the TGI (MDA-MB-231 breast) was greater than 92.6 µM and the TGI (IGROV1 ovarian) was 36.8 µM. The TGI (SF-268 CNS) was greater than 89.3 µM, the TGI (NCI-H460 lung) was greater than 100 µM and the TGI (HOP-92 NSCLC) was 44.3 µM. For the same molecule, the TGI (U251 CNS) was greater than 100 µM, the TGI (NCI-H226 lung) was greater than 100 µM and the TGI (OVCAR-5 ovarian) was greater than 100 µM. The TGI (OVCAR-8 ovarian) was greater than 100 µM, the TGI (M14 melanoma) was greater than 100 µM and the TGI (MDA-MB-435) was greater than 100 µM. For the same molecule, the TGI (K-562 leukemia) was greater than 100 µM, the TGI (UO-31 renal) was greater than 100 µM and the TGI (RXF 393 renal) was greater than 100 µM. For the same molecule, the TGI (SK-MEL-28 melanoma) was greater than 100 µM, the TGI (SNB-19 CNS) was greater than 100 µM and the TGI (CCRF-CEM leukemia) was greater than 64 µM. The TGI (UACC-257 melanoma) was greater than 100 µM, the TGI (DU-145 prostate) was greater than 100 µM and the TGI (TK-10 renal) was greater than 100 µM. For the same molecule, the TGI (NCI-H23 lung) was greater than 100 µM, the TGI (A549 NSCLC) was greater than 100 µM and the TGI (SF-295 CNS) was greater than 100 µM. It also gave a TGI (COLO 205 colon) greater than 100 µM and a TGI (EKVX NSCLC) greater than 100 µM.

`Cn1c(=O)oc2cc(C(=O)CSC(=S)N3CCCCCC3)ccc21` gave a TGI (SF-539 CNS) greater than 100 µM, a TGI (HOP-62 NSCLC) greater than 100 µM and a TGI (786-0 renal) greater than 100 µM. It also gave a TGI (NCI/ADR-RES ovarian) greater than 100 µM, a TGI (SW-620 colon) greater than 100 µM and a TGI (NCI-H522 lung) greater than 100 µM. The TGI (SN12C renal) was greater than 100 µM, the TGI (MOLT-4 leukemia) was greater than 100 µM and the TGI (ACHN renal) was greater than 100 µM. It also gave a TGI (RPMI-8226 leukemia) greater than 100 µM, a TGI (SK-MEL-2 melanoma) greater than 100 µM and a TGI (MALME-3M melanoma) greater than 100 µM. For the same molecule, the TGI (A498 renal) was greater than 100 µM, the TGI (OVCAR-4 ovarian) was greater than 100 µM and the TGI (HT29 colon) was 36.7 µM. The TGI (SR leukemia) was greater than 100 µM, the TGI (CAKI-1 renal) was greater than 100 µM and the TGI (SNB-75 CNS) was greater than 100 µM. The TGI (HS 578T breast) was greater than 100 µM, the TGI (OVCAR-3 ovarian) was greater than 100 µM and the TGI (HCC-2998 colon) was greater than 100 µM. The TGI (PC-3 prostate) was greater than 100 µM, the TGI (HCT-15 colon) was greater than 100 µM and the TGI (T-47D breast) was greater than 100 µM. The TGI (MCF7 breast) was greater than 100 µM, the TGI (MDA-N) was greater than 100 µM and the TGI (UACC-62 melanoma) was greater than 100 µM. The TGI (SK-MEL-5 melanoma) was greater than 100 µM, the TGI (KM12 colon) was greater than 100 µM and the TGI (HL-60(TB) leukemia) was greater than 100 µM. It also gave a TGI (BT-549 breast) greater than 100 µM, a TGI (SK-OV-3 ovarian) greater than 100 µM and a TGI (HCT-116 colon) greater than 100 µM. It also gave a TGI (MDA-MB-231 breast) greater than 100 µM, a TGI (IGROV1 ovarian) greater than 100 µM and a TGI (SF-268 CNS) greater than 100 µM. The TGI (NCI-H460 lung) was greater than 100 µM, the TGI (HOP-92 NSCLC) was greater than 100 µM and the TGI (U251 CNS) was greater than 100 µM. For the same molecule, the TGI (NCI-H226 lung) was greater than 100 µM, the TGI (OVCAR-5 ovarian) was greater than 100 µM and the TGI (OVCAR-8 ovarian) was greater than 100 µM. It also gave a TGI (M14 melanoma) greater than 100 µM, a TGI (MDA-MB-435) greater than 100 µM and a TGI (K-562 leukemia) greater than 100 µM. For the same molecule, the TGI (UO-31 renal) was greater than 100 µM, the TGI (RXF 393 renal) was greater than 100 µM and the TGI (SK-MEL-28 melanoma) was greater than 100 µM. For the same molecule, the TGI (SNB-19 CNS) was greater than 100 µM, the TGI (CCRF-CEM leukemia) was greater than 100 µM and the TGI (UACC-257 melanoma) was greater than 100 µM. For the same molecule, the TGI (DU-145 prostate) was greater than 100 µM, the TGI (TK-10 renal) was greater than 100 µM and the TGI (NCI-H23 lung) was greater than 100 µM. For the same molecule, the TGI (A549 NSCLC) was greater than 100 µM, the TGI (SF-295 CNS) was greater than 100 µM and the TGI (COLO 205 colon) was greater than 100 µM. For the same molecule, the TGI (EKVX NSCLC) was greater than 100 µM.
